Test results as given in ChEMBL document CHEMBL3632533, “O-Benzoyl pyridine aldoxime and amidoxime derivatives: novel efficient DNA photo-cleavage agents” (Medchemcomm, 2015).
Each block holds one molecule with its values, some of them ahead of it. Active and inactive are the calls of the source. The calls are words filed in the database; no cut-off is given here.

How the values were obtained:
[1] = test system: Enterobacteria phage lambda; test: Induction of Lambda phage supercoiled circular pBluescript KS II DNA cleavage assessed as single-stranded nick formation at 100 uM preincubated for 30 mins followed by UV light irradiation under aerobic condition measured after 15 mins by agarose gel electrophoresis
[2] = test system: Enterobacteria phage lambda; test: Induction of Lambda phage supercoiled circular pBluescript KS II DNA cleavage assessed as single-stranded nick formation at 500 uM preincubated for 30 mins followed by UV light irradiation under aerobic condition measured after 15 mins by agarose gel electrophoresis
[3] = test system: Enterobacteria phage lambda; test: Induction of Lambda phage supercoiled circular pBluescript KS II DNA cleavage incubated for 30 mins by agarose gel electrophoresis in absence of UV light irradiation
[4] = test system: Enterobacteria phage lambda; test: Induction of Lambda phage supercoiled circular pBluescript KS II DNA cleavage assessed as single-stranded nick formation at 1000 uM preincubated for 30 mins followed by UV light irradiation under aerobic condition measured after 15 mins by agarose gel electrophoresis
[5] = test system: Enterobacteria phage lambda; test: Induction of Lambda phage supercoiled circular pBluescript KS II DNA cleavage assessed as double-stranded nick formation at 1000 uM preincubated for 30 mins followed by UV light irradiation under aerobic condition measured after 15 mins by agarose gel electrophoresis
[6] = test system: Enterobacteria phage lambda; test: Induction of Lambda phage supercoiled circular pBluescript KS II DNA cleavage assessed as double-stranded nick formation at 10 uM preincubated for 30 mins followed by UV light irradiation under aerobic condition measured after 15 mins by agarose gel electrophoresis
[7] = test system: Enterobacteria phage lambda; test: Induction of Lambda phage supercoiled circular pBluescript KS II DNA cleavage assessed as double-stranded nick formation at 100 uM preincubated for 30 mins followed by UV light irradiation under aerobic condition measured after 15 mins by agarose gel electrophoresis
[8] = test system: Enterobacteria phage lambda; test: Induction of Lambda phage supercoiled circular pBluescript KS II DNA cleavage assessed as single-stranded nick formation at 10 uM preincubated for 30 mins followed by UV light irradiation under aerobic condition measured after 15 mins by agarose gel electrophoresis
[9] = test system: Enterobacteria phage lambda; test: Induction of Lambda phage supercoiled circular pBluescript KS II DNA cleavage assessed as single-stranded nick formation at 1 uM preincubated for 30 mins followed by UV light irradiation under aerobic condition measured after 15 mins by agarose gel electrophoresis
[10] = test system: Enterobacteria phage lambda; test: Induction of Lambda phage supercoiled circular pBluescript KS II DNA cleavage assessed as double-stranded nick formation at 100 uM preincubated for 30 mins followed by UV light irradiation measured after 15 mins by agarose gel electrophoresis in presence of argon
[11] = test system: Enterobacteria phage lambda; test: Induction of Lambda phage supercoiled circular pBluescript KS II DNA cleavage assessed as double-stranded nick formation at 100 uM preincubated for 30 mins followed by UV light irradiation under aerobic condition measured after 15 mins by agarose gel electrophoresis in presence of 20% DMSO
[12] = test system: Enterobacteria phage lambda; test: Induction of Lambda phage supercoiled circular pBluescript KS II DNA cleavage assessed as single-stranded nick formation at 100 uM preincubated for 30 mins followed by UV light irradiation under aerobic condition measured after 15 mins by agarose gel electrophoresis in presence of 20% DMSO
[13] = test system: Enterobacteria phage lambda; test: Induction of Lambda phage supercoiled circular pBluescript KS II DNA cleavage assessed as double-stranded nick formation at 1 uM preincubated for 30 mins followed by UV light irradiation under aerobic condition measured after 15 mins by agarose gel electrophoresis
[14] = test system: Enterobacteria phage lambda; test: Induction of Lambda phage supercoiled circular pBluescript KS II DNA cleavage assessed as single-stranded nick formation at 100 uM preincubated for 30 mins followed by UV light irradiation under aerobic condition measured after 15 mins by agarose gel electrophoresis in presence of NaN3
[15] = test system: Enterobacteria phage lambda; test: Induction of Lambda phage supercoiled circular pBluescript KS II DNA cleavage assessed as single-stranded nick formation at 100 uM preincubated for 30 mins followed by UV light irradiation measured after 15 mins by agarose gel electrophoresis in presence of argon
[16] = test system: Enterobacteria phage lambda; test: Induction of Lambda phage supercoiled circular pBluescript KS II DNA cleavage assessed as double-stranded nick formation at 500 uM preincubated for 30 mins followed by UV light irradiation under aerobic condition measured after 15 mins by agarose gel electrophoresis
[17] = test system: Enterobacteria phage lambda; test: Induction of Lambda phage supercoiled circular pBluescript KS II DNA cleavage assessed as single-stranded nick formation at 100 uM preincubated for 30 mins followed by UV light irradiation under aerobic condition measured after 15 mins by agarose gel electrophoresis in presence of D2O
[18] = test system: Enterobacteria phage lambda; test: Induction of Lambda phage supercoiled circular pBluescript KS II DNA cleavage preincubated for 30 mins followed by UV light irradiation under aerobic condition measured after 15 mins by agarose gel electrophoresis
[19] = test system: Enterobacteria phage lambda; test: Induction of Lambda phage supercoiled circular pBluescript KS II DNA cleavage assessed as double-stranded nick formation at 100 uM preincubated for 30 mins followed by UV light irradiation under aerobic condition measured after 15 mins by agarose gel electrophoresis in presence of D2O

SMILES: COc1ccc(C(=O)O/N=C(\N)c2cccnc2)cc1
- Activity [1]: 0%
- Activity [2]: 27%
- Activity [3]: inactive
- Activity [4]: 36%

SMILES: N=C(NOC(=O)c1ccccc1)c1cccnc1
- Activity [1]: 5%
- Activity [2]: 25%
- Activity [3]: inactive
- Activity [4]: 25%

SMILES: N/C(=N\O)c1cccnc1
- Activity [18]: inactive
- Activity [3]: inactive

SMILES: O/N=C/c1cccnc1
- Activity [18]: inactive
- Activity [3]: inactive

SMILES: NC(=NOC(=O)c1ccc([N+](=O)[O-])cc1)c1ccccn1
- Activity [1]: 85%
- Activity [6]: Active
- Activity [7]: 10%
- Activity [13]: 15%
- Activity [8]: Active
- Activity [5]: 20%
- Activity [3]: inactive
- Activity [9]: 70%
- Activity [4]: 73%

SMILES: O=C(O/N=C/c1ccccn1)c1ccc([N+](=O)[O-])cc1
- Activity [1]: 83%
- Activity [7]: 10%
- Activity [5]: 7%
- Activity [3]: inactive
- Activity [9]: 46%
- Activity [4]: 86%

The remaining lines, values ahead:

- Activity [1]: 39%
- Activity [2]: 38%
- Activity [5]: 1%
- Activity [3]: inactive
- Activity [4]: 72%
SMILES: O=C(O/N=C/c1cccnc1)c1ccccc1

- Activity [1]: 75%
- Activity [6]: Active
- Activity [7]: 7%
- Activity [8]: Active
- Activity [5]: 50%
- Activity [3]: inactive
- Activity [9]: 25%
- Activity [4]: 50%
SMILES: N/C(=N\OC(=O)c1ccc([N+](=O)[O-])cc1)c1ccncc1

- Activity [1]: 81%
- Activity [10]: 6%
- Activity [6]: Active
- Activity [7]: 4%
- Activity [11]: 5%
- Activity [12]: 83%
- Activity [2]: 75%
- Activity [13]: 4%
- Activity [14]: 16%
- Activity [8]: Active
- Activity [5]: 36%
- Activity [15]: 86%
- Activity [3]: inactive
- Activity [9]: 56%
- Activity [4]: 64%
- Activity [16]: 2%
- Activity [17]: 28%
SMILES: NC(=NOC(=O)c1ccc([N+](=O)[O-])cc1)c1cccnc1

- Activity [1]: 0%
- Activity [2]: 29%
- Activity [3]: inactive
- Activity [4]: 35%
SMILES: COc1ccc(C(=O)O/N=C/c2cccnc2)cc1

- Activity [1]: 0%
- Activity [2]: 6%
- Activity [3]: inactive
- Activity [4]: 0%
SMILES: CC(=O)O/N=C(\N)c1cccnc1

- Activity [1]: 84%
- Activity [10]: 9%
- Activity [7]: 2%
- Activity [11]: 20%
- Activity [19]: 8%
- Activity [12]: 75%
- Activity [2]: 81%
- Activity [14]: 23%
- Activity [5]: 13%
- Activity [15]: 85%
- Activity [3]: inactive
- Activity [9]: 59%
- Activity [4]: 84%
- Activity [16]: 2%
- Activity [17]: 85%
SMILES: O=C(O/N=C/c1cccnc1)c1ccc([N+](=O)[O-])cc1

- Activity [1]: 87%
- Activity [7]: 9%
- Activity [5]: 33%
- Activity [3]: inactive
- Activity [9]: 28%
- Activity [4]: 67%
SMILES: O=C(O/N=C/c1ccncc1)c1ccc([N+](=O)[O-])cc1
